Paper PMC12867150, “A fungi-derived cyclic peptide enhances Th9-mediated antitumor immunity by targeting ZAP70 and SREBP1” (The Journal of Clinical Investigation, 2025)
Several values for one entry are separate records, joined by “and”; a condition that tells them apart may be missing. Equal entries are not always repeated.

Experiments:
B16-OVA melanoma = test: Adoptive transfer of OT-II Th9 cells, B16-OVA tumor growth in C57BL/6 mice (Figure 2A, 2H); type: in vivo; conditions: EpA-Th9 cells vs conventional Th9 cells; result in words
Text: (A) Schematic of the therapeutic model. C57BL/6 mice were subcutaneously inoculated with B16-OVA melanoma cells (5 × 10^5) and preconditioned with cyclophosphamide (CTX) on day 4. […] (B–G) Flow-cytometric analysis of transferred CD45.1^+ OT-II Th9 cells (B and C) and endogenous CD4^+ (D and E) and CD8^+ T cells (F and G) in spleens and tumors, showing frequencies and absolute numbers (n = 4 mice per group). (H) Tumor growth curves in B16-OVA–bearing C57BL/6 or β2-microglobulin–deficient (β2m-KO) mice following transfer of control or EpA-treated OT-II Th9 cells (n = 4 mice per group). (I) C57BL/6 mice bearing B16-OVA tumors were treated with control or EpA-induced OT-II Th9 cells (2 × 10^6, i.v., day 5), followed by anti–PD-1 antibody (200 μg, i.p.) on day 7, and (100 μg, i.p.) on day 10 and 12. Tumor growth is shown with individual trajectories (n = 6 mice per group). Statistical analysis was performed using 2-tailed unpaired Student’s t test ([…], B–G) or 1-way ANOVA with Tukey’s post hoc test (H and I). All data are presented as the mean ± SEM. *P < 0.05, **P < 0.01, ***P < 0.001. Schematic in A created using BioRender (https://Biorender.com).
C57BL/6 mice were subcutaneously injected with 5 × 10^5 B16-OVA melanoma cells. […]

endogenous CD4+ T cells = test: Flow cytometry of endogenous CD4+ T cells in spleen, LN, tumor (Figure 2D-E, S1F-H); type: in vivo, mouse; conditions: for Frequencies of endogenous CD4⁺ T cells in LN: Supplemental Figure 1G left; for Number of endogenous CD4⁺ T cells in LN: Supplemental Figure 1G right; for CD4 gate number: representative flow plot; for endogenous CD4 T cells (%) / number of endogenous CD4 T cells: individual mice, n = 4
Protocol: C57BL/6 mice were subcutaneously injected with 5 × 10^5 B16-OVA melanoma cells. Five days after tumor implantation, mice received an intravenous infusion of 2 × 10^6 in vitro–differentiated Th9 cells (cultured for 5 days), which were derived from OT-II CD45.1 donor mice, accompanied by 4 × 10^5 OVA peptide–pulsed DCs via the tail vein. To enhance T cell engraftment and facilitate lymphodepletion, a single intraperitoneal injection of cyclophosphamide (200 mg/kg, Sigma, catalog C0768) was administered 1 day prior to T cell transfer. Mice were euthanized at designated time points for the collection and analysis of spleens, tumor-draining lymph nodes, and tumor tissues.
Details regarding staining panels (human and mouse), reagents (including clones and catalog numbers), acquisition settings, compensation/controls, and analysis procedures are provided in Supplemental Methods.
BioLegend, Cat. No. 422301 or Mouse TruStain FcX™, BioLegend, Cat. No. 101319) for 10 minutes at 4°C. For surface marker detection, cells were stained with fluorochrome-conjugated monoclonal antibodies in 96-well V-bottom plates and incubated on ice for 30 minutes. After staining, cells were washed twice and resuspended in FACS buffer for analysis.
Prior to intracellular cytokine staining, cells were restimulated for 4 hours with PMA (Absin, Cat. No. abs9107), ionomycin (Sigma-Aldrich, Cat. No. I0634), and brefeldin A (MedChemExpress, Cat. No. HY-16592). For intracellular cytokine staining, cells were first surface-stained as described above, then fixed and permeabilized using the BD Cytofix/Cytoperm™ kit (BD Biosciences, Cat. No. 554714) according to the manufacturer ’s protocol. Intracellular proteins were stained with directly conjugated antibodies targeting IL-9, IL-17a, IL-4, IFN-γ, TNF-α, FOXP3, p-ZAP70, Perforin, and […]
Antibodies used for mouse samples included those against IL-9 (PE, clone RM9A4, Biolegend, Cat. No. 514104), IFN-γ (PE, clone XMG1.2, Biolegend, Cat. No.
Cat. No. 103138), CD4 (APC/Cy7, clone E-AB-F1353UJ, Elabscience, Cat. No.
AF18028), CD8α (PerCP/Cy5.5, clone E-AB-F1104UJ, Elabscience, Cat. No. […]
clone E-AB-F1187UH, Elabscience, Cat. No. AF19854), TNF-α (BV421, clone MP6-XT22, Biolegend, Cat. No. 506328), FOXP3 (PE, clone FJK-16s, eBioscience, Cat. No.
Perforin (APC, clone S16009A, Biolegend, Cat. No. 154303) and Granzyme B (APC, […]
clone QA16A02, Biolegend, Cat. No. 372203). […]
Figure S1. EpA enhances immune responses. […]
I) Representative flow-cytometric plots of endogenous CD4⁺ and CD8⁺ T cells in spleens (F), LNs (G), and tumors (H); frequencies and absolute numbers of endogenous CD4⁺ (G) and CD8⁺ (I) T cells in LNs are quantified. (J and K) […]
Statistical analysis was performed using two-way ANOVA with Tukey’s post hoc test (A), one-way ANOVA with Tukey’s post hoc test (B) or two-tailed unpaired Student’s t-test (D and G–M). ns, not significant. *p < 0.05, **p < 0.01, ****p < 0.0001.
(also on this page, place not known: Mouse weight (g) CtrlEpA CtrlEpA CtrlEpA0 I CD45.1+ T cells (%) CtrlEpA CD4+ T cells (%) CtrlEpA CtrlEpA CtrlEpA FSC CD8 CD8 FSC FSC FSC BNumber of CD45.1+ T cells (×103 per mgĎ Number of CD4+ T cells (×104 per mgĎ DC (%)NK cells (%) NK cells (%) DC (%) Number of DC (×103 per mg) Number of NK cells (×105) Number of NK cells (×103 per mg) Number of DC (×105) FSC FSC FSC CD8 CtrlEpA CtrlEpA CtrlEpA CD8+ T cells (%) Number of CD8+ T cells (×104 per mgĎ nsns ns nsns ns 40 IL-6 (pg/ml)) […]

## anteiso-C15 Leu7 surfactin [EpA]
B16-OVA melanoma
  tumor control: significantly improved tumor control
Endogenous CD4+ T cells; LN, replicate 1
  Frequencies of endogenous CD4⁺ T cells in LN: 32.6
  Number of endogenous CD4⁺ T cells in LN: 43261
Endogenous CD4+ T cells; LN, replicate 2
  Frequencies of endogenous CD4⁺ T cells in LN: 26.4
  Number of endogenous CD4⁺ T cells in LN: 37630
Endogenous CD4+ T cells; LN, replicate 3
  Frequencies of endogenous CD4⁺ T cells in LN: 36
  Number of endogenous CD4⁺ T cells in LN: 15416
Endogenous CD4+ T cells; LN, replicate 4
  Frequencies of endogenous CD4⁺ T cells in LN: 26
  Number of endogenous CD4⁺ T cells in LN: 15595.7
Endogenous CD4+ T cells; LN, Figure S1G
  CD4 gate number: 36.0
Endogenous CD4+ T cells; Spleen, Figure S1F
  CD4 gate number: 26.1
Endogenous CD4+ T cells; Tumor, Figure S1H
  CD4 gate number: 15.2
Endogenous CD4+ T cells; spleens, lymph nodes, tumors, result in words
  endogenous CD4+ T cell frequency and number: minimal changes
Endogenous CD4+ T cells; spleens
  endogenous CD4 T cells (%): 30.3% and 32.9% and 35.5% and 26.1%
  number of endogenous CD4 T cells: 1093264 and 1018812 and 1081910 and 535955
Endogenous CD4+ T cells; tumors
  endogenous CD4 T cells (%): 15.2% and 16.6% and 24% and 21.6%
  number of endogenous CD4 T cells: 158 and 294 and 393 and 62
